Measured values taken from PubChem BioAssay AID248 (DTP/NCI, 2004).
“And” between values parts separate entries of the source, which are not always exact repeats. Identical values can stand only once. Inconclusive results and toxic doses are left out. No stated cut-off is given here; in the data, active means T/C of 150% or more; inactive means T/C below 125%.

Tested on: L1210 leukemia ip in BDF1 mice, survival T/C
Test: NCI In Vivo Anticancer Drug Screen. Data for tumor model L1210 Leukemia (intraperitoneal) in B6D2F1 (BDF1) mice
Conditions: endpoint: mean survival time, higher = longer survival
Summary of the method: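 Value reflects the ratio of survival in compound-treated mice to survival in vehicle-treated controls, with both groups carrying the same transplanted tumor.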

[1] = dose: 100.0 mg/kg/injection, schedule: Q04DX003 (ip), vehicle: other
[2] = dose: 100.0 mg/kg/injection, schedule: Q01DX001 (ip), vehicle: Klucel (hydroxypropylcellulose) (HPC)
[3] = dose: 100.0 mg/kg/injection, schedule: Q01DX009 (ip), vehicle: Klucel (hydroxypropylcellulose) (HPC)
[4] = dose: 100.0 mg/kg/injection, schedule: Q04DX003 (ip), vehicle: Klucel (hydroxypropylcellulose) (HPC)
[5] = dose: 200.0 mg/kg/injection, schedule: Q01DX001 (ip), vehicle: Klucel (hydroxypropylcellulose) (HPC)
[6] = dose: 200.0 mg/kg/injection, schedule: Q01DX009 (ip), vehicle: Klucel (hydroxypropylcellulose) (HPC)
[7] = dose: 200.0 mg/kg/injection, schedule: Q04DX003 (ip), vehicle: Klucel (hydroxypropylcellulose) (HPC)
[8] = dose: 400.0 mg/kg/injection, schedule: Q01DX001 (ip), vehicle: Klucel (hydroxypropylcellulose) (HPC)
[9] = dose: 400.0 mg/kg/injection, schedule: Q01DX009 (ip), vehicle: Klucel (hydroxypropylcellulose) (HPC)
[10] = dose: 400.0 mg/kg/injection, schedule: Q04DX003 (ip), vehicle: Klucel (hydroxypropylcellulose) (HPC)
[11] = dose: 100.0 mg/kg/injection, schedule: Q04DX003 (ip), vehicle: saline
[12] = dose: 200.0 mg/kg/injection, schedule: Q04DX003 (ip), vehicle: saline
[13] = dose: 50.0 mg/kg/injection, schedule: Q04DX003 (ip), vehicle: Klucel (hydroxypropylcellulose) (HPC)
[14] = dose: 100.0 mg/kg/injection, schedule: Q01DX001 (ip), vehicle: saline
[15] = dose: 200.0 mg/kg/injection, schedule: Q01DX001 (ip), vehicle: saline
[16] = dose: 50.0 mg/kg/injection, schedule: Q01DX009 (ip), vehicle: Klucel (hydroxypropylcellulose) (HPC)
[17] = dose: 100.0 mg/kg/injection, schedule: Q04DX003 (ip), vehicle: saline with Tween-80
[18] = dose: 200.0 mg/kg/injection, schedule: Q04DX003 (ip), vehicle: saline with Tween-80
[19] = dose: 400.0 mg/kg/injection, schedule: Q04DX003 (ip), vehicle: saline with Tween-80
[20] = dose: 100.0 mg/kg/injection, schedule: Q01DX009 (ip), vehicle: saline
[21] = dose: 200.0 mg/kg/injection, schedule: Q01DX009 (ip), vehicle: saline
[22] = dose: 400.0 mg/kg/injection, schedule: Q01DX009 (ip), vehicle: saline
[23] = dose: 5.0 mg/kg/injection, schedule: Q01DX001 (ip), vehicle: other
[24] = dose: 10.0 mg/kg/injection, schedule: Q01DX001 (ip), vehicle: other
[25] = dose: 20.0 mg/kg/injection, schedule: Q01DX001 (ip), vehicle: other
[26] = dose: 400.0 mg/kg/injection, schedule: Q04DX003 (ip), vehicle: saline

Measured: T/C

COC(=O)C1(C)CCCC2(C)C3CCC(C(C)C)C(CO)C3C(CO)CC12 (stereo not given)
inactive: [1] 107 % of control | dose: 200.0 mg/kg/injection, schedule: Q04DX003 (ip), vehicle: other 104 % of control | dose: 400.0 mg/kg/injection, schedule: Q04DX003 (ip), vehicle: other 107 % of control

CNC(=S)NN=C(c1ccccc1)c1ccccc1
inactive: [2] 95 % of control | [3] 91 % of control | [4] 93 % of control | [5] 90 % of control | [6] 89 % of control | [7] 87 % of control | [8] 87 % of control | [9] 93 % of control | [10] 96 % of control

Cc1cc2c(cc1C)NC(=O)CC(=O)N2
inactive: [3] 96 % of control and 97 % of control | [4] 92 % of control | [6] 86 % of control | [7] 100 % of control | [9] 89 % of control | [10] 89 % of control

Nc1cccc(COc2ccccc2)c1
inactive: [11] 90 % of control | [12] 92 % of control

CC1CCCCN1P(=[Se])(c1ccccc1)N1CCCCC1C (stereo not given)
inactive: dose: 25.0 mg/kg/injection, schedule: Q04DX003 (ip), vehicle: Klucel (hydroxypropylcellulose) (HPC) 97 % of control | [13] 103 % of control | [4] 100 % of control and 90 % of control

COC(=O)C(CSSCC(NC(=O)c1ccccc1)C(=O)OC)NC(=O)c1ccccc1 (stereo not given)
inactive: dose: 50.0 mg/kg/injection, schedule: Q01DX001 (ip), vehicle: saline 98 % of control | [14] 114 % of control | [15] 97 % of control

CCCCCCCCCCCCCCCCCC(=O)N/N=C/C=C/c1ccccc1
inactive: [16] 101 % of control | [3] 98 % of control | [6] 101 % of control and 91 % of control | [9] 100 % of control

S=C(NCc1ccccc1)c1ccccc1
inactive: [2] 106 % of control | [5] 108 % of control | [8] 104 % of control

Cc1cc(=O)[nH]c2c(Cl)ccc(C(F)(F)F)c12
inactive: dose: 100.0 mg/kg/injection, schedule: Q01DX001 (ip), vehicle: other 94 % of control | dose: 200.0 mg/kg/injection, schedule: Q01DX001 (ip), vehicle: other 94 % of control | dose: 400.0 mg/kg/injection, schedule: Q01DX001 (ip), vehicle: other 114 % of control

O=C(OCc1ccccc1CN1CCOCC1)c1ccc(Cl)cc1
inactive: dose: 100.0 mg/kg/injection, schedule: Q04DX002 (ip), vehicle: Klucel (hydroxypropylcellulose) (HPC) 103 % of control | dose: 200.0 mg/kg/injection, schedule: Q04DX002 (ip), vehicle: Klucel (hydroxypropylcellulose) (HPC) 106 % of control | dose: 400.0 mg/kg/injection, schedule: Q04DX002 (ip), vehicle: Klucel (hydroxypropylcellulose) (HPC) 100 % of control

O=C1c2c(c(-c3ccccc3)c3ccccc3c2-c2ccccc2)C(c2ccccc2)c2c1c(-c1ccccc1)c1ccccc1c2-c1ccccc1
inactive: dose: 100.0 mg/kg/injection, schedule: Q01DX001 (ip), vehicle: saline with Tween-80 111 % of control | dose: 200.0 mg/kg/injection, schedule: Q01DX001 (ip), vehicle: saline with Tween-80 97 % of control | dose: 400.0 mg/kg/injection, schedule: Q01DX001 (ip), vehicle: saline with Tween-80 90 % of control

CN(C)c1ccc(/C=C(\C#N)c2ccc([N+](=O)[O-])cc2)c(Cl)c1
inactive: [17] 91 % of control | [18] 96 % of control | [19] 96 % of control

COc1ccc(C2(SCC(N)C(=O)O)c3ccccc3-c3ccccc32)cc1 (stereo not given)
inactive: dose: 25.0 mg/kg/injection, schedule: Q01DX009 (ip), vehicle: saline 101 % of control | dose: 50.0 mg/kg/injection, schedule: Q01DX009 (ip), vehicle: saline 98 % of control | [20] 95 % of control | [21] 93 % of control | dose: 300.0 mg/kg/injection, schedule: Q01DX009 (ip), vehicle: saline 98 % of control | [22] 102 % of control

CCCCC/C(C)=N\Nc1ccccn1
inactive: dose: 12.5 mg/kg/injection, schedule: Q01DX009 (ip), vehicle: Klucel (hydroxypropylcellulose) (HPC) 98 % of control | dose: 25.0 mg/kg/injection, schedule: Q01DX009 (ip), vehicle: Klucel (hydroxypropylcellulose) (HPC) 100 % of control | dose: 25.0 mg/kg/injection, schedule: Q01DX009 (ip), vehicle: acetone 97 % of control | dose: 50.0 mg/kg/injection, schedule: Q01DX001 (ip), vehicle: acetone 100 % of control | [16] 104 % of control | dose: 50.0 mg/kg/injection, schedule: Q01DX009 (ip), vehicle: acetone 100 % of control | [13] 95 % of control | dose: 50.0 mg/kg/injection, schedule: Q04DX003 (ip), vehicle: saline with Tween-80 100 % of control | dose: 100.0 mg/kg/injection, schedule: Q01DX001 (ip), vehicle: acetone 102 % of control | dose: 100.0 mg/kg/injection, schedule: Q01DX009 (ip), vehicle: acetone 88 % of control | [4] 101 % of control | [17] 100 % of control | dose: 200.0 mg/kg/injection, schedule: Q01DX001 (ip), vehicle: acetone 94 % of control | [7] 106 % of control

Clc1ccc(N=C/C=C/c2ccccc2)cc1
inactive: dose: 25.0 mg/kg/injection, schedule: Q04DX003 (ip), vehicle: other 95 % of control | dose: 50.0 mg/kg/injection, schedule: Q04DX003 (ip), vehicle: other 108 % of control | [1] 100 % of control

Clc1ccccc1C(CI)c1ccccc1Cl
inactive: [23] 98 % of control | [24] 98 % of control | [25] 98 % of control | dose: 40.0 mg/kg/injection, schedule: Q01DX001 (ip), vehicle: other 100 % of control | dose: 80.0 mg/kg/injection, schedule: Q01DX001 (ip), vehicle: other 100 % of control

CC(NC(=O)OCc1ccccc1)C(=O)NC(Cc1ccc(O)cc1)C(=O)OCc1ccccc1 (stereo not given)
inactive: [17] 97 % of control | [18] 90 % of control | [19] 93 % of control

Cc1c(C(=O)O)cc2n(c1=O)Cc1cc3ccccc3nc1-2
inactive: [20] 90 % of control | [11] 95 % of control | [21] 86 % of control | [12] 106 % of control | [26] 98 % of control

N#Cc1c(Br)n(C2OC(CO)C(O)C2O)c2ncnc(N)c12 (stereo not given)
inactive: [14] 123 % of control | dose: 178.0 mg/kg/injection, schedule: Q01DX001 (ip), vehicle: saline 104 % of control and 115 % of control | dose: 267.0 mg/kg/injection, schedule: Q01DX001 (ip), vehicle: saline 110 % of control and 117 % of control | dose: 400.0 mg/kg/injection, schedule: Q01DX001 (ip), vehicle: saline 112 % of control and 121 % of control | dose: 600.0 mg/kg/injection, schedule: Q01DX001 (ip), vehicle: saline 114 % of control

O=C(O)COCC(F)(F)C(F)(F)C(F)(F)COCC(=O)O
inactive: [20] 92 % of control | [11] 97 % of control | [21] 97 % of control | [12] 98 % of control | [22] 110 % of control | [26] 93 % of control

S=c1c2[nH]cnc2ncn1C1CCCC1
inactive: [23] 100 % of control | [24] 106 % of control | dose: 15.0 mg/kg/injection, schedule: Q01DX009 (ip), vehicle: saline with Tween-80 119 % of control | [25] 103 % of control | dose: 33.5 mg/kg/injection, schedule: Q01DX009 (ip), vehicle: saline with Tween-80 104 % of control

O=S1(=O)CCN(c2ccccc2CC(c2c[nH]c3ccccc23)c2c[nH]c3ccccc23)CC1
inactive: [14] 89 % of control | [15] 86 % of control

c1ccc(Cc2[nH]nc(-c3ccccc3)c2N=Nc2ccccc2)cc1
inactive: [2] 94 % of control | [4] 103 % of control | [5] 94 % of control | [7] 103 % of control | [8] 91 % of control | [10] 100 % of control

COc1ccc(C=Nc2ccc(Cl)cc2)cc1
inactive: [3] 96 % of control | [4] 102 % of control | [6] 97 % of control | [7] 104 % of control | [10] 100 % of control
